Source: publication PMC12445744, “Molecular docking to homology models of human and Trypanosoma brucei ERK8 that identified ortholog-specific inhibitors” (PLOS Neglected Tropical Diseases, 2025)
“And” between values parts separate entries of the source, which are not always exact repeats. Equal values may be shown once.

Biological target: T1, TbERK8 (Trypanosoma brucei brucei, UniProt Q38B88)
T1 sequence (Q38B88 1-442): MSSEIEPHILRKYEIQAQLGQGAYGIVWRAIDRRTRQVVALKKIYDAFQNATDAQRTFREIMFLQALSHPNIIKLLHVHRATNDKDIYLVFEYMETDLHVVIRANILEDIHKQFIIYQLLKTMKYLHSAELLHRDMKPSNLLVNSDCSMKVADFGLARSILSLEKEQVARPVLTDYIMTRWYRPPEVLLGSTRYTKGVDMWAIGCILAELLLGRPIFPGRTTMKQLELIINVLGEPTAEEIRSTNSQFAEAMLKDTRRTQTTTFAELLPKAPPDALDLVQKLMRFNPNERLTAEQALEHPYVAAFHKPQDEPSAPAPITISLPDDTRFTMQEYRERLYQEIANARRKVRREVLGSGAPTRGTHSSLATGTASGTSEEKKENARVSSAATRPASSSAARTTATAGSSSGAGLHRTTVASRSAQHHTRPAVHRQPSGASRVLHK
Test: Luciferase-based kinase inhibition assay (ATP luminescence), GST-tagged TbERK8 with MBP substrate
Type: biochemical
Design: raw luminescence, TbERK8: unit of the concentration uncertain
Details: for raw luminescence, TbERK8: sheet Kinase_glo_080924_IFPS (2), replicate wells, listed as Ida
Experimental: Escherichia coli strain Rosetta 2 (DE3) (Cat# 71397, MilliporeSigma, Burlington, MA) was transformed with the plasmid pGEX2T expressing the full-length hERK8 coding region or pGSTAg expressing the full-length TbERK8 coding region. One liter of Terrific Broth media containing 100 μg/ml Ampicillin and 30 μg/ml chloramphenicol in 2 L baffled flasks was inoculated with 25 mL from an overnight culture of Rosetta 2 strains harboring either the pGEX2T-hERK8 or pGSTAg-TbERK8 plasmid. Two baffled flasks were inoculated with each overnight strain and incubated and shaken at 175 RPM in a New Brunswick Innova 44R Incubator Shaker (Fischer Scientific, Pittsburgh, PA) at 37 °C until the cultures reached an O.D.600 of 0.94. Once the cultures in the flask reached the target O.D.600, the flasks were cooled to 4 °C in an ice water bath. The cooled cultures were induced by adding isopropyl β-D-1-thiogalactopyranoside (IPTG) to a final concentration of 0.1 mM and shaken at 16 °C for 16 hours at 175 RPM in a New Brunswick Innova 44R Incubator Shaker (Fischer Scientific, Pittsburgh, PA). On the next day, the cultures were pelleted by centrifugation at 9000 xg in a JLA 10.500 rotor (Beckman Coulter; Brea, CA), and the media was decanted. The pellet was flash-frozen in liquid nitrogen and then thawed on ice. The thawed pellet was resuspended in lysis buffer (25 mM Tris, 75 mM NaCl, 0.5% TritonX-100 and 0.5% Nonidet P-40, 1 mM phenylmethanesulfonyl fluoride, 1 mM benzamidine⋅HCl) and lysed using a microfluidizer M-110P from Microfluidics (Westwood, MA). The crude lysates were clarified by centrifugation at 140,000 xg in a 45Ti rotor (Beckman Coulter, Brea, CA) for 30 min at 4°C. The clarified lysate was loaded by gravity to a 3 mL glutathione agarose resin column (Cat# G-250–10, GOLDBIO, St. Louis, MO) formed in a 1.5 × 20 cm glass chromatography column (Cat# 7371522, Bio-Rad, Hercules, CA). The column was washed with 30 mL of PBS (pH 7.4) containing 1 mM DTT. Elution buffer (50 mM Tris buffer pH 8.0 containing 10 mM reduced glutathione and 1 mM DTT was added to the washed column), and 1 mL fractions were collected by gravity and examined by SDS-PAGE stained by Coomassie dye. Peak fractions pooled from the elution were dialyzed (4x 1:500 dilutions) in kinase buffer (30 mM Tris, pH 7.4, 10 mM MgCl2, 1 mM DTT, 5% glycerol).
We performed kinase assays in buffer K (30 mM Tris pH 7.4, 10 mM MgCl2, 1 mM DTT, 5% glycerol, 50 μM ATP, and 0.1 mg/mL BSA) at 30°C for 30 min in 30 μL reactions. GST-tagged HsERK8 and TbERK8 were tested using myelin basic protein (MBP) (Cat# 13–110, Millipore, Darmstadt, Germany) as the substrate at increasing concentrations to determine the optimal activity for the assay. ATP consumption was determined by adding equal volumes of the kinase assay reagent (Promega, Cat# V5601, Madison, WI) following the manufacturer’s protocol. Luminescence was measured using the microplate reader (SpectraMax L, Molecular Devices, Sunnyvale, CA).
These compounds were screened for kinase inhibition utilizing a luciferase-based assay. Briefly, the kinases were tested using MBP as the substrate at a 14-fold molar excess in 384-well flat-bottom white plates (BRANDTECH Scientific, Cat# 781681, Essex, CT). These compounds were tested at concentrations ranging from […] to 150 nM. The kinases plus MBP substrate reactions were incubated with each inhibitor for 30 minutes at 30°C. Equal volumes of kinase assay mix Promega (Cat# V5601, Madison, WI) were added to the kinase/inhibitor reaction after 30 minutes, following the manufacturer’s protocol. ATP luminescence was measured using a microplate reader (SpectraMax L, Molecular Devices, Sunnyvale, CA). IC50 values were calculated from assays done in triplicate by fitting the data using Prism 8.1.1 (GraphPad).

Structure (SMILES): CC(=O)[C@]1(O)Cc2c(O)c3c(c(O)c2[C@@H](O[C@H]2C[C@H](N)[C@H](O)[C@H](C)O2)C1)C(=O)c1ccccc1C3=O [Idarubicin]
- raw luminescence, TbERK8 (0.00015 (unit uncertain) compound): 2715.27 RLU and 2728.74 RLU and 2394.11 RLU
- raw luminescence, TbERK8 (0.00061 (unit uncertain) compound): 1071.28 RLU and 918.564 RLU and 956.744 RLU
- raw luminescence, TbERK8 (0.00244 (unit uncertain) compound): 1109.46 RLU and 1118.45 RLU and 925.302 RLU
- raw luminescence, TbERK8 (0.00977 (unit uncertain) compound): 992.678 RLU and 972.465 RLU and 952.252 RLU
- raw luminescence, TbERK8 (0.03906 (unit uncertain) compound): 1019.63 RLU and 976.957 RLU and 1073.53 RLU
- raw luminescence, TbERK8 (0.15625 (unit uncertain) compound): 1318.33 RLU and 1147.64 RLU and 1078.02 RLU
- raw luminescence, TbERK8 (0.62500 (unit uncertain) compound): 2223.42 RLU and 1980.86 RLU and 1909 RLU
- raw luminescence, TbERK8 (2.50000 (unit uncertain) compound): 2212.19 RLU and 2209.94 RLU and 2311.01 RLU
- raw luminescence, TbERK8 (10.00000 (unit uncertain) compound, signal = ATP left): 619.862 RLU and 786.057 RLU and 752.369 RLU
- inhibitory effect on kinase activity of TbERK8 (concentrations below 4.0 x10^-5 M (above this the red compound blocked luminescence)): no detectible (n/d) inhibitory effect
